Results taken from patent US6638974B1, “Ascorbyl esters for the treatment of cancer” (University of South Florida, priority 1999, dated 2003).

How the values were obtained:
[1] = tested on: OVCAR-3 and PANC-1 s.c. tumors; test: s.c. OVCAR-3 and PANC-1 tumors in BALB/c nude mice; type: in vivo, mouse; details: 100 mg/Kg s.c. daily for two weeks
Method: The experimental approach is to test effect of Ascorbyl stearate (Asc-S) on the tumorigenicity of ovarian and pancreatic tumor cells. Procedures involve culturing OVCOR-3 (ovarian cancer cells) and PANC-1 (pancreatic cancer cells). When confluent, cells were trypsinized, washed and resuspended in sterile phosphate buffered solution ([…]) in a volume of 0.1 ml and injected s.c. above the hind leg of the mice. Two groups each for OVCOR-3 and PANC-1 tumor cells were established.
Asc-S is lipophilic compound. Asc-S was dissolved in a small volume of ethyl alcohol and then reconstituted in sterile normal saline. The final concentration of ethyl alcohol was ˜5%. At that concentration ethyl alcohol would not have any deleterious effect. […] The controls received […] of a mixture of 0.5:10 ethyl alcohol and sterile normal saline.
Group 1 is made up of OVCAR-3 cells plus Vehicle. A mixture of 0.5:10 of ethyl alcohol and normal saline was used as the vehicle. Group 2 is made up of OVCAR-3 cells plus Asc-S at a concentration of 100 mg/Kg was administered subcutaneously at the vicinity of the s.c. tumor one week prior to treatment with Asc-S. The Asc-S was distributed in a small volume of ethyl alcohol and then reconstituted into normal saline. […]
For the preliminary studies, six mice per group were used. […] The s.c. tumors were isolated, tumor sizes were measured and processed for pathological evaluation. […]

IGF1-R [2] = test: IGF1-R expression by Western immunoblotting, U-373; type: cell-based, human; details: 75 μM, 24 hours, MEM+10% FBS
Method: (§1) The T98G and U-373 cells were cultured for 24 hours in MEM+10% FBS and when confluent were treated with 100 μM and 75 μM, Asc-S for 24 hours, respectively. […] In addition, it was also observed that the inhibition of IGF1-R expression was dose and time dependent. The T98G cells culture in MEM+10% FBS and treated with different concentrations of Asc-S, e.g. 50, 75, 100, 125, 150 and 175 μM for 24 hours, inhibited IGF1-R in a dose dependent fashion (FIG. 8C). The T98G cells treated with 100 μM Asc-S for different time points, e.g. 1, 3, 6, 12 and 24 hours inhibited IGF1-R in a time dependent manner (FIG. 8D). IGF1-R expression was evaluated by Western immunoblotting technique with rabbit-antihuman IGF1-R antibodies (Upstate Biotechnology, Lake Placid, N.Y.) with HRP conjugated anti-rabbit secondary antibody.
(§2) The inhibition of IGF1-R expression was also dose and time dependent. […] The following are depicted in FIG. 8B: Lane 1: P6 positive control for IGF1-R […]; Lane 2: untreated T98G cells; Lane 3: Asc-S (125 μM) treated T98G cells. […]

IGF1-R [3] = test: IGF1-R expression by Western immunoblotting, T98G; type: cell-based, human; details: 100 μM, 24 hours, MEM+10% FBS
Method: as §1, §2

c-Src = c-Src expression by Western immunoblot, T98G; type: cell-based, human; details: 100 μM, 24 h
Method: The Src oncogene product was the first to be identified as tyrosine kinase. Today the “Src-family” of non-receptor tyrosine kinases is known to be represented in every cell type and signaling system. […] This observation is further corroborated with the data on the dose and time dependent inhibition of IGF1-R described herein.
The T98G cells are exponentially grown in MEM with 10 nM human recombinant IGF-1 (Bachem California, Torrance, Calif.) or MEM with 10% FBS. The cells were disrupted in cold lysis buffer (10 μM terra sodium pyrophosphate, 20 mM HEPES, 1% Triton X-100, 100 mM NaCl, 2 ug/ml aprotinin, 2 μg/ml leupeptin and 100 μg/ml of PMSF). The crude lysates were centrifuged and protein concentration was determined by using Pierce BCA Protein Assay kit. […] Rabbit anti-human polyclonal primary antibodies to c-Src (pp60^Src (aa403-421) (Upstate Biotechnology, Lake Placid, N.Y.) were incubated for one hour at room temperature in TBST and 1% nonfat milk. The blots were then washed and incubated with anti-rabbit horseradish peroxidase conjugated secondary antibody (Oncogene Science, Inc. Uniondale, N.Y.). Antigen bound to nitrocellulose membrane was detected with the ECL system (Amersham Corp., Arlington Heights, Ill.). FIG. 9A was a positive control for c-Src from A431 cell lysate, FIGS. 9B and C were untreated and 100 μM […] treated T98G cell lysates respectively.

## CCCCCCCCCCCCCCCCCC(=O)OC[C@H](O)[C@H]1OC(=O)C(O)=C1O [Asc-S, Ascorbyl stearate]
[1]
  apoptotic cells in s.c. tumors (pathological evaluation): predominantly higher percentage of apoptotic cells
  decrease in the size of the tumors compared to untreated controls: 70%
IGF1-R [2]
  IGF1-R expression, U-373 cells: significantly down regulated
IGF1-R [3]
  IGF1-R expression, T98G cells: significantly down regulated
c-Src
  c-Src expression, T98G cells: did not affect
